Source: patent US20110045101A1, “FUNGICIDAL SUBSTITUTED AZOLES” (E.I. Du Pont De Nemours and Company, priority 2009, published 2011)

Assays:
Type in all cases: in vivo
Botrytis cinerea = assay: Test C: tomato Botrytis on tomato seedlings, sprayed the day before inoculation, visual disease rating; conditions: Botrytis cinerea, 120 h, 200 ppm, 100 = 100% disease control
Outline: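 Spray to run-off on tomato seedlings; test conc. 200 ppm (≈500 g/ha), some entries 40 ppm. Formulation: acetone 3% of final vol., then acetone/water 50:50 + 250 ppm polyhydric alcohol ester surfactant.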

Alternaria solani = assay: Test D: tomato early blight, sprayed the day before inoculation, visual disease rating; conditions: Alternaria solani, 168 h, 200 ppm, 100 = 100% disease control
Outline: (§1)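 Spray suspension: acetone 3% of final volume, then 50/50 acetone/water plus 250 ppm Trem® 014. Applied to run-off on seedlings at 200 ppm (≈500 g/ha); starred entries tested at 40 ppm.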

Septoria nodorum = assay: Test F: wheat glume blotch on wheat seedlings, sprayed the day before inoculation, visual disease rating; conditions: Parastagonospora nodorum, 264 h, 200 ppm, 100 = 100% disease control
Outline: as §1

Septoria tritici = assay: Test G: wheat leaf blotch on wheat seedlings, sprayed the day before inoculation, visual disease rating; conditions: Zymoseptoria tritici, 504 h, 200 ppm, 100 = 100% disease control
Outline: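 Spray to run-off, 200 ppm (≈500 g/ha; starred = 40 ppm), acetone/water 50/50 + 250 ppm Trem® 014. Spore inoculation +1 d. 24° C saturated 48 h → 20° C 19 d. Visual rating.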

[1] = test system: Puccinia recondita f. sp. tritici; assay: Test H: wheat leaf rust, test suspension sprayed after inoculation of wheat seedlings, visual disease rating; conditions: Puccinia recondita, 96 h, 200 ppm, 100 = 100% disease control
Source text: General protocol for preparing test suspensions for Tests A-J: The test compounds were first dissolved in acetone in an amount equal to 3% of the final volume and then suspended at the desired concentration (in ppm) in acetone and purified water (50/50 mix) containing 250 ppm of the surfactant Trem® 014 (polyhydric alcohol esters). The resulting test suspensions were then used in tests A-J. Spraying a 200 ppm test suspension to the point of run-off on the test plants was the equivalent of a rate of 500 g/ha. […] Wheat seedlings were inoculated with a spore suspension of Puccinia recondita f. sp. tritici (the causal agent of wheat leaf rust) and incubated in a saturated atmosphere at 20° C. for 24 h, and then moved to a growth chamber at 20° C. for 2 days. […] A dash (-) indicates no test results. All results are for 200 ppm except where followed by “*”, which indicates 40 ppm.

[2] = test system: Puccinia recondita f. sp. tritici; assay: Test I: wheat leaf rust on wheat seedlings, sprayed the day before inoculation, visual disease rating; conditions: Puccinia recondita, 168 h, 200 ppm, 100 = 100% disease control
Outline: as §1

[3] = test system: Erysiphe graminis f. sp. tritici; assay: Test J: wheat powdery mildew on wheat seedlings, sprayed the day before inoculation, visual disease rating; conditions: Blumeria graminis, 168 h, 200 ppm, 100 = 100% disease control
Outline: as §1

[4] = 0 = no control relative to controls

SMILES	pest or weed control at 200 ppm (Botrytis cinerea; 0 = no control)	pest or weed control at 200 ppm (Alternaria solani; 0 = no control)	pest or weed control at 200 ppm (Septoria nodorum; 0 = no control)	pest or weed control at 200 ppm (Septoria tritici; 0 = no control)	pest or weed control at 200 ppm ([1]; 0 = no control)	pest or weed control at 200 ppm ([2]; 0 = no control)	pest or weed control at 200 ppm ([3]; 0 = no control)	pest or weed control at 200 ppm (Botrytis cinerea; [4])	pest or weed control at 200 ppm (Alternaria solani; [4])	pest or weed control at 200 ppm (Septoria nodorum; [4])	pest or weed control at 200 ppm (Septoria tritici; [4])	pest or weed control at 200 ppm [1, 4]	pest or weed control at 200 ppm [2, 4]	pest or weed control at 200 ppm [3, 4]
COc1cc(F)c(-c2c(Cl)nc(C=O)n2-c2ccc(F)cc2)c(F)c1 [Compound 276, 4-chloro-5-(2,6-difluoro-4-methoxyphenyl)-1-(4-fluorophenyl)-1H-imidazole-2-carboxaldehyde]	100%	100%	0%	92%	9%	98%	100%	–	–	–	–	–	–	–
COc1cc(F)c(-c2c(Cl)nc(CO)n2-c2ccc(F)cc2)c(F)c1 [Compound 298, 4-chloro-5-(2,6-difluoro-4-methoxyphenyl)-1-(4-fluorophenyl)-1H-imidazole-2-methanol]	–	–	–	–	–	–	–	100%	100%	0%	96%	0%	98%	0%
COc1cc(F)c(-c2c(Cl)nc(CF)n2-c2ccc(F)cc2)c(F)c1 [Compound 331, 4-chloro-5-(2,6-difluoro-4-methoxyphenyl)-2-(fluoromethyl)-1-(4-fluorophenyl)-1H-imidazole]	–	–	–	–	–	–	–	100%	100%	99%	95%	85%	100%	100%
COc1cc(F)c(-c2c(Cl)nc(C=NO)n2-c2ccc(F)cc2)c(F)c1 [Compound 349, 4-chloro-5-(2,6-difluoro-4-methoxyphenyl)-1-(4-fluorophenyl)-1H-imidazole-2-carboxaldehyde oxime]	–	–	–	–	–	–	–	100%	99%	99%	88%	0%	99%	95%
N#Cc1ccc(F)c(-c2c(Cl)ncn2-c2ccc(Cl)cc2)c1F [Compound 386, 3-[4-chloro-1-(4-chlorophenyl)-1H-imidazol-5-yl]-2,4-difluorobenzonitrile]	–	–	–	–	–	–	–	99%	100%	0%	96%	0%	98%	95%
N#Cc1ccc(F)c(-c2c(Cl)nc(Br)n2-c2ccc(Cl)cc2)c1F [Compound 419, 3-[2-bromo-4-chloro-1-(4-chlorophenyl)-1H-imidazol-5-yl]-2,4-difluorobenzonitrile]	–	–	–	–	–	–	–	100%	100%	100%	100%	0%	97%	99%
Cc1nc(Cl)c(-c2c(F)ccc(C#N)c2F)n1-c1ccc(Cl)cc1 [Compound 430, 3-[4-chloro-1-(4-chlorophenyl)-2-methyl-1H-imidazol-5-yl]-2,4-difluorobenzonitrile]	–	–	–	–	–	–	–	100%	100%	100%	100%	0%	100%	100%
Fc1cccc(F)c1-c1c(Br)nc(CCBr)n1-c1ccc(Cl)cc1 [Compound 475, 4-bromo-2-(bromoethyl)-1-(4-chlorophenyl)-5-(2,6-difluorophenyl)-1H-imidazole]	–	–	–	–	–	–	–	98%	26%	0%	92%	0%	87%	42%
COc1ccc(F)c(-c2c(Br)nc(Br)n2-c2ccc(F)cc2)c1F [Compound 504, 2,4-dibromo-5-(2,6-difluoro-3-methoxyphenyl)-1-(4-fluorophenyl)-1H-imidazole]	–	–	–	–	–	–	–	99%	100%	100%	97%	0%	99%	100%
N#CCc1nc(Br)c(-c2c(F)cccc2F)n1-c1ccc(Cl)cc1 [Compound 509, 4-bromo-1-(4-chlorophenyl)-5-(2,6-difluorophenyl)-1H-imidazole-2-acetonitrile]	–	–	–	–	–	–	–	98%	77%	0%	92%	9%	85%	78%
COC(=O)Cc1nc(Br)c(-c2c(F)cccc2F)n1-c1ccc(Cl)cc1 [Compound 544, methyl 4-bromo-1-(4-chlorophenyl)-5-(2,6-difluorophenyl)-1H-imidazole-2-acetate]	–	–	–	–	–	–	–	84%	98%	0%	82%	9%	91%	86%
COc1ccc(F)c(-c2c(C)nc(C)n2-c2ccc(F)cc2)c1F [Compound 549, 5-(2,6-difluoro-3-methoxyphenyl)-1-(4-fluorophenyl)-2,4-dimethyl-1H-imidazole]	–	–	–	–	–	–	–	100%	100%	99%	98%	0%	100%	100%
O=C(O)Cc1nc(Br)c(-c2c(F)cccc2F)n1-c1ccc(Cl)cc1 [Compound 570, 4-bromo-1-(4-chlorophenyl)-5-(2,6-difluorophenyl)-1H-imidazole-2-acetic acid]	–	–	–	–	–	–	–	0%	0%	0%	97%	0%	13%	69%
CNC(=O)Cc1nc(Br)c(-c2c(F)cccc2F)n1-c1ccc(Cl)cc1 [Compound 571, 4-bromo-1-(4-chlorophenyl)-5-(2,6-difluorophenyl)-N-methyl-1H-imidazole-2-acetamide]	–	–	–	–	–	–	–	33%	0%	0%	82%	0%	90%	0%
C=Cc1nc(Cl)c(-c2c(F)ccc(OC)c2F)n1-c1cccc(OC(F)F)c1 [Compound 583, 4-chloro-1-[3-(difluoromethoxy)phenyl]-5-(2,6-difluoro-3-methoxyphenyl)-2-ethenyl-1H-imidazole]	–	–	–	–	–	–	–	99%	97%	0%	94%	0%	85%	83%
Cc1ccc(-n2c(C)nc(Cl)c2-c2c(F)cc(O)cc2F)cc1 [Compound 624, 4-[4-chloro-2-methyl-1-(4-methylphenyl)-1H-imidazol-5-yl]-3,5-difluorophenol]	–	–	–	–	–	–	–	99%	64%	0%	94%	0%	99%	90%
